{"source": "patent US20090314217A1", "about": "“APPARATUS AND METHOD FOR TREATING NON-HUMAN MAMMALS” (Under The Boardwalk Properties 8 (Proprietary) Limited, priority 2006, published 2009)", "key": {"[1]": {"assay": "Blood tests on the horses on the days of the race (Table 1)", "assay_type": "in vivo, horse", "procedure": "The apparatus 10 was used in a confidential trial to treat five horses taking part in an endurance race. The five horses were called Moniq, Shamon, Pauli, Viola and Ophelia. During treatment, the average temperature inside the enclosure 22 was between 42° C. and 45° C. and an oxygen flow rate of 1 l/min was supplied to the ozonator 52. During treatment, the average heart-rate for the non-accustomed horses was 42 beats per minute. The superficial skin temperature measured on the neck and the point of the shoulder of the horses was 39° C. in each case.\nTable 1 provides information on the blood tests conducted on the five horses, on the days of the race as indicated."}, "[2]": {"details": "horse Pauli, race day 2, pre-treated before race"}, "[3]": {"details": "horse Shamon, race day 3, treated day 2"}, "[4]": {"details": "horse Viola, race day 2, treated days 1 and 2, day 1 value 40"}}, "note": "Read-outs that look alike come from different tables or passages of the source."}
{"molecule": "O=[O+][O-]", "note": "[ozone]", "values": [{"measurement": "PDW", "setting": "[1]; [2]", "value": 33.8}, {"measurement": "PLT = platelets", "setting": "[1]; [2]", "value": "1.1e+11", "unit": "L⁻¹"}, {"measurement": "RBC = red blood cell count", "setting": "[1]; [2]", "value": "1.05e+13", "unit": "L⁻¹"}, {"measurement": "RDWc", "setting": "[1]; [2]", "value": 21.9, "unit": "%"}, {"measurement": "TBIL = total biliruben", "setting": "[1]; [2]", "value": 96, "unit": "µmol/L"}, {"measurement": "TP = total protein", "setting": "[1]; [2]", "value": 79, "unit": "gram/liter"}, {"measurement": "WBC = white blood cell count", "setting": "[1]; [2]", "value": "1.98e+10", "unit": "L⁻¹"}, {"measurement": "ALB = albumin", "setting": "[1]; [3]", "value": 31, "unit": "gram/liter"}, {"measurement": "AST = aspertate amino transferase", "setting": "[1]; [3]", "value": 722, "unit": "Units/liter"}, {"measurement": "BUN = blood urea nitrogen", "setting": "[1]; [3]", "value": 9, "unit": "mmol/L"}, {"measurement": "CA++ = calcium", "setting": "[1]; [3]", "value": 2.76, "unit": "mmol/L"}, {"measurement": "CK = creatine kinase", "setting": "[1]; [3]", "value": 1450, "unit": "International Units/liter"}, {"measurement": "CRE = creatinine", "setting": "[1]; [3]", "value": 122, "unit": "µmol/L"}, {"measurement": "GGT = gamma glutamiel transferase", "setting": "[1]; [3]", "value": 27, "unit": "Units/liter"}, {"measurement": "GLOB = globulin", "setting": "[1]; [3]", "value": 35, "unit": "gram/liter"}, {"measurement": "GLU = glucose", "setting": "[1]; [3]", "value": 6.3, "unit": "mmol/L"}, {"measurement": "GR % = granulocytes percentage", "setting": "[1]; [3]", "value": 78.4, "unit": "%"}, {"measurement": "GRA = granulocytes", "setting": "[1]; [3]", "value": "1.24e+10", "unit": "L⁻¹"}, {"measurement": "HB = hemoglobin", "setting": "[1]; [3]", "value": 11.9, "unit": "d/deciliter"}, {"measurement": "K+ = potassium", "setting": "[1]; [3]", "value": 3.8, "unit": "mmol/L"}, {"measurement": "LY % = lymphocytes percentage", "setting": "[1]; [3]", "value": 16.4, "unit": "%"}, {"measurement": "LYM = lymphocytes", "setting": "[1]; [3]", "value": "2.59e+09", "unit": "L⁻¹"}, {"measurement": "MCH = mean corpuscular hemoglobin", "setting": "[1]; [3]", "value": 15.8, "unit": "pg"}, {"measurement": "MCHC = mean corpuscular hemoglobin concentration", "setting": "[1]; [3]", "value": 39.3, "unit": "gram/deciliter"}, {"measurement": "MCV = mean corpuscular volume", "setting": "[1]; [3]", "value": 40, "unit": "femtoliter"}, {"measurement": "MON % = monocytes percentage", "setting": "[1]; [3]", "value": 5.2, "unit": "%"}, {"measurement": "MON = monocytes", "setting": "[1]; [3]", "value": "8.2e+08", "unit": "L⁻¹"}, {"measurement": "Na+ = sodium", "setting": "[1]; [3]", "value": 138, "unit": "mmol/L"}, {"measurement": "PCT", "setting": "[1]; [3]", "value": 0.06, "unit": "%"}, {"measurement": "PDW", "setting": "[1]; [3]", "value": 35.8}, {"measurement": "PLT = platelets", "setting": "[1]; [3]", "value": "1.02e+11", "unit": "L⁻¹"}, {"measurement": "RBC = red blood cell count", "setting": "[1]; [3]", "value": "7.56e+12", "unit": "L⁻¹"}, {"measurement": "RDWc", "setting": "[1]; [3]", "value": 22.1, "unit": "%"}, {"measurement": "TBIL = total biliruben", "setting": "[1]; [3]", "value": 52, "unit": "µmol/L"}, {"measurement": "TP = total protein", "setting": "[1]; [3]", "value": 66, "unit": "gram/liter"}, {"measurement": "WBC = white blood cell count", "setting": "[1]; [3]", "value": "1.58e+10", "unit": "L⁻¹"}, {"measurement": "PCT", "setting": "[1]; horse Viola, race day 2, treated days 1 and 2, day 1 value 0.09", "value": 0.05, "unit": "%"}, {"measurement": "MON = monocytes", "setting": "[1]; horse Viola, race day 2, treated days 1 and 2, day 1 value 0.64", "value": "5.6e+08", "unit": "L⁻¹"}, {"measurement": "LYM = lymphocytes", "setting": "[1]; horse Viola, race day 2, treated days 1 and 2, day 1 value 1.34", "value": "2.14e+09", "unit": "L⁻¹"}, {"measurement": "GLU = glucose", "setting": "[1]; horse Viola, race day 2, treated days 1 and 2, day 1 value 2.9", "value": 5.7, "unit": "mmol/L"}, {"measurement": "CA++ = calcium", "setting": "[1]; horse Viola, race day 2, treated days 1 and 2, day 1 value 2.97", "value": 2.88, "unit": "mmol/L"}, {"measurement": "MON % = monocytes percentage", "setting": "[1]; horse Viola, race day 2, treated days 1 and 2, day 1 value 4.3", "value": 4.3, "unit": "%"}, {"measurement": "K+ = potassium", "setting": "[1]; horse Viola, race day 2, treated days 1 and 2, day 1 value 5.1", "value": 3.7, "unit": "mmol/L"}, {"measurement": "LY % = lymphocytes percentage", "setting": "[1]; horse Viola, race day 2, treated days 1 and 2, day 1 value 8.9", "value": 16.3, "unit": "%"}, {"measurement": "BUN = blood urea nitrogen", "setting": "[1]; horse Viola, race day 2, treated days 1 and 2, day 1 value 9", "value": 9, "unit": "mmol/L"}, {"measurement": "RBC = red blood cell count", "setting": "[1]; horse Viola, race day 2, treated days 1 and 2, day 1 value 9.73", "value": "9.03e+12", "unit": "L⁻¹"}, {"measurement": "GRA = granulocytes", "setting": "[1]; horse Viola, race day 2, treated days 1 and 2, day 1 value 13.0", "value": "1.04e+10", "unit": "L⁻¹"}, {"measurement": "WBC = white blood cell count", "setting": "[1]; horse Viola, race day 2, treated days 1 and 2, day 1 value 15.0", "value": "1.31e+10", "unit": "L⁻¹"}, {"measurement": "HB = hemoglobin", "setting": "[1]; horse Viola, race day 2, treated days 1 and 2, day 1 value 15.2", "value": 14.4, "unit": "d/deciliter"}, {"measurement": "MCH = mean corpuscular hemoglobin", "setting": "[1]; horse Viola, race day 2, treated days 1 and 2, day 1 value 15.7", "value": 16.0, "unit": "pg"}, {"measurement": "GGT = gamma glutamiel transferase", "setting": "[1]; horse Viola, race day 2, treated days 1 and 2, day 1 value 17", "value": 18, "unit": "Units/liter"}, {"measurement": "RDWc", "setting": "[1]; horse Viola, race day 2, treated days 1 and 2, day 1 value 22.4", "value": 22.6, "unit": "%"}, {"measurement": "ALB = albumin", "setting": "[1]; horse Viola, race day 2, treated days 1 and 2, day 1 value 34", "value": 30, "unit": "gram/liter"}, {"measurement": "PDW", "setting": "[1]; horse Viola, race day 2, treated days 1 and 2, day 1 value 35.8", "value": 31.0}, {"measurement": "MCHC = mean corpuscular hemoglobin concentration", "setting": "[1]; horse Viola, race day 2, treated days 1 and 2, day 1 value 39.4", "value": 39.0, "unit": "gram/deciliter"}, {"measurement": "GLOB = globulin", "setting": "[1]; [4]", "value": 39, "unit": "gram/liter"}, {"measurement": "MCV = mean corpuscular volume", "setting": "[1]; [4]", "value": 41, "unit": "femtoliter"}, {"measurement": "TBIL = total biliruben", "setting": "[1]; horse Viola, race day 2, treated days 1 and 2, day 1 value 41", "value": 48, "unit": "µmol/L"}, {"measurement": "TP = total protein", "setting": "[1]; horse Viola, race day 2, treated days 1 and 2, day 1 value 75", "value": 69, "unit": "gram/liter"}, {"measurement": "GR % = granulocytes percentage", "setting": "[1]; horse Viola, race day 2, treated days 1 and 2, day 1 value 86.8", "value": 79.4, "unit": "%"}, {"measurement": "CRE = creatinine", "setting": "[1]; horse Viola, race day 2, treated days 1 and 2, day 1 value 131", "value": 99, "unit": "µmol/L"}, {"measurement": "Na+ = sodium", "setting": "[1]; horse Viola, race day 2, treated days 1 and 2, day 1 value 144", "value": 138, "unit": "mmol/L"}, {"measurement": "PLT = platelets", "setting": "[1]; horse Viola, race day 2, treated days 1 and 2, day 1 value 146", "value": "9.9e+10", "unit": "L⁻¹"}, {"measurement": "CK = creatine kinase", "setting": "[1]; horse Viola, race day 2, treated days 1 and 2, day 1 value 5896", "value": 1599, "unit": "International Units/liter"}, {"measurement": "AST = aspertate amino transferase", "setting": "[1]; horse Viola, race day 2, treated days 1 and 2, day 1 value >2000", "value": 1814, "unit": "Units/liter"}, {"measurement": "discomfort during the treatment", "setting": "five horses, during treatment", "value": "none of the horses appeared to be uncomfortable"}, {"measurement": "respiration of the horses during treatment", "setting": "five horses, during treatment", "value": "increased"}, {"measurement": "motion marks in the rest of the ride", "setting": "horse Moniq, after treatment on day 1 and day 2, motion 1 throughout day 1", "value": "no motion marks"}, {"measurement": "muscle spasms found by physiotherapist", "setting": "horse Moniq, day 2 and day 3 of race, lumbar spasms confirmed on day 1 before treatment", "value": "no muscle spasms"}, {"measurement": "creatine kinase", "setting": "horse Moniq, treated on day 1 and day 2 of race, lowered from 3873", "value": 706}, {"measurement": "rider's report on second and third days of the race", "setting": "horse Ophelia, dehydrated and fatigued on day 1, treated after first and second day", "value": "felt very strong and consistent"}, {"measurement": "performance on third day of the race", "setting": "horse Shamon, severe fatigue by day 2, treated in the afternoon of day 2, finished fifteenth", "value": "rode very well"}, {"measurement": "CK and AST levels", "setting": "horses that presented symptoms of tying-up", "value": "marked decrease"}, {"measurement": "occurrence of muscle spasms", "setting": "horses treated transdermally with ozone", "value": "significantly reduced"}, {"measurement": "energy levels and stamina", "setting": "horses with general fatigue from constant hard work and competition", "value": "marked improvement"}, {"measurement": "motion marks or stiffness during the race", "setting": "mare Pauli, pre-treatments before the race, history of gluteal muscle spasms and tying up, finished fourteenth", "value": "no motion marks or stiffness"}, {"measurement": "owner's report on second and third days of the race", "setting": "mare Viola, treated on first and second day", "value": "felt much stronger and looser"}, {"measurement": "aspertine amino transferase", "setting": "mare Viola, treated on first and second day, lowered from more than 2000", "value": 1814, "unit": "U/L"}, {"measurement": "creatine kinase", "setting": "mare Viola, tying up on day 1, treated on first and second day, lowered from 5896", "value": 1599, "unit": "IU/K"}, {"measurement": "average heart-rate during treatment", "setting": "non-accustomed horses, enclosure 42-45 °C, oxygen flow 1 l/min to ozonator", "value": 42, "unit": "beats per minute"}, {"measurement": "muscle stiffness caused by long periods of intense exercise", "setting": "preliminary study on endurance horses", "value": "benefit to reduce muscle stiffness"}]}
